Measured values taken from patent US20230295234A1, “ANTIMICROBIAL PEPTIDOMIMETICS” (SPEXIS AG, priority 2020, published 2023).
Bridge positions count the residues as written; N and C are the ends. Square brackets hold non-standard residues; d marks the D form. Peptide text beside a SMILES is read from it. Pro(4R-NH2) = N[C@H]1CN[C@H](C(=O)O)C1; Gly(N-2-aminoethyl) = NCCNCC(=O)O; Gly(N(CH2)3NH2) = NCCCNCC(=O)O; Pen = CC(C)(S)[C@H](N)C(=O)O; dDab = NCC[C@@H](N)C(=O)O; Nle = CCCC[C@H](N)C(=O)O; Orn = NCCC[C@H](N)C(=O)O; Dab = NCC[C@H](N)C(=O)O

Key:
[1] = test system: Klebsiella pneumoniae SSI3010; conditions: SSI3010
Protocol: (§1) Lyophilized peptides were weighed on a Microbalance (Mettler MT5) and dissolved in sterile water to a final concentration of 1 mg/mL. Stock solutions were kept at +4° C., light protected.
(§2) Colonies of the microorganisms were diluted in saline (0.85%, NaCl) and adjusted using a McFarland reader (bioMérieux SA, Marcy-l'Etoile, France) to 0.5 McFarland standard. Subsequently, the bacterial suspension was diluted in Mueller-Hinton II (MHII, cation adjusted) broth to give approximately 5×10^5 colony forming units (CFU/mL).
(§3) 10^6 colony forming units (CFU)/mL. Aliquots (90 μl) of inoculate were added to 10 μl of water+P-80 (Polysorbate 80, 0.002% final concentration) containing the peptide in serial two-fold dilutions at 10 fold final concentration. The following microorganisms were used to determine antibiotic selectivity of the peptides: Escherichia coli ATCC 25922, Escherichia coli MCR-1 Af 45 and Klebsiella pneumoniae SSI3010.

[2] = test system: Escherichia coli MCR-1 Af 45; conditions: MCR-1 Af 45
Protocol: as §1, §2, §3

[3] = test system: Escherichia coli ATCC 25922; conditions: ATCC 25922
Protocol: as §1, §2, §3

[4] = test system: human red blood cells (hRBC); test: Hemolysis of human red blood cells; type: cell-based; conditions: red cells of human, 1 h
Protocol: Lyophilized peptides were weighed on a Microbalance (Mettler MT5) and dissolved in sterile water to a final concentration of 1 mg/mL. Stock solutions were kept at +4° C., light protected. The peptides were tested for their hemolytic activity against human red blood cells (hRBC). Fresh hRBC were washed three times with phosphate buffered saline (PBS) and centrifuged for 5 min at 3000×g. Compounds (200 μg/mL) were incubated with 20% hRBC (v/v) for 1 h at 37° C. and shaking at 300 rpm. […] The samples were centrifuged, the supernatants were 8-fold diluted in PBS buffer and the optical densities (OD) were measured at 540 nm. […] Percent hemolysis was calculated as follows: (OD540peptide/OD540H2O)×100%.

Structure (SMILES)	Klebsiella pneumoniae SSI3010 MIC [1] [µg/mL]	Escherichia coli MCR-1 Af 45 MIC [2] [µg/mL]	Escherichia coli ATCC 25922 MIC [3] [µg/mL]	Hemolysis at 0.2 g/L [4] [%]
CCCC[C@H](NC(=O)[C@H](CCCNC(=N)N)NC(=O)[C@H](CCN)NC(=O)[C@@H]1CSSC(C)(C)[C@H](NC(=O)[C@H](Cc2ccc(O)cc2)NC(=O)[C@@H](NC(=O)[C@@H](NC(=O)CN(CCN)C(=O)[C@@H](NC(=O)[C@@H]2CCCN2)C(C)C)[C@@H](C)CC)[C@@H](C)CC)C(=O)N[C@@H](CC(N)=O)C(=O)N[C@@H](CCCNC(=N)N)C(=O)N[C@@H](CCN)C(=O)N[C@@H]([C@@H](C)O)C(=O)N[C@H](CCN)C(=O)N[C@@H](CCCCN)C(=O)N1)C(=O)O [Example 7, Pro-Val-Ndab-Ile-Ile-Tyr-Pen-Asn-Arg-Dab-Thr-^DDab-Lys-Cys-Dab-Arg-Nle] (HELM PEPTIDE1{P.V.[NCCN(CC(=O)[*:2])[*:1]].I.I.Y.[Pen].N.R.[Dab].T.[NCC[C@@H](N[*:1])C(=O)[*:2]].K.C.[Dab].R.[Nle]}$PEPTIDE1,PEPTIDE1,7:R3-14:R3$$$V2.0)	0.25	0.25	0.125	0
CCCC[C@H](NC(=O)[C@H](CCCNC(=N)N)NC(=O)[C@H](CCN)NC(=O)[C@@H]1CSSC(C)(C)[C@H](NC(=O)[C@H](Cc2ccc(O)cc2)NC(=O)[C@@H](NC(=O)[C@@H](NC(=O)[C@@H]2C[C@@H](N)CN2C(=O)[C@@H](NC(=O)[C@@H]2C[C@@H](N)CN2)C(C)C)[C@@H](C)CC)[C@@H](C)CC)C(=O)N[C@@H](CC(N)=O)C(=O)N[C@@H](CCCNC(=N)N)C(=O)N[C@@H](CCN)C(=O)N[C@@H]([C@@H](C)O)C(=O)N[C@H](CCN)C(=O)N[C@@H](CCCCN)C(=O)N1)C(=O)O [Example 8, Pro((4R)NH2)-Val-Pro((4R)NH2)-Ile-Ile-Tyr-Pen-Asn-Arg-Dab-Thr-^DDab-Lys-Cys-Dab-Arg-Nle] (H-[Pro(4R-NH2)]V[Pro(4R-NH2)]IIY[Pen]NR[Dab]T[dDab]KC[Dab]R[Nle]-OH; disulfide 7-14)	0.125	0.0625	0.0625	0
CCCC[C@H](NC(=O)[C@H](CCCNC(=N)N)NC(=O)[C@H](CCN)NC(=O)[C@@H]1CSSC(C)(C)[C@H](NC(=O)[C@H](Cc2ccc(O)cc2)NC(=O)[C@@H](NC(=O)[C@@H](NC(=O)[C@@H]2C[C@@H](N)CN2C(=O)[C@@H](NC(=O)[C@@H]2C[C@@H](N)CN2)C(C)C)[C@@H](C)CC)[C@@H](C)O)C(=O)N[C@@H](CC(N)=O)C(=O)N[C@@H](CCCNC(=N)N)C(=O)N[C@@H](CCN)C(=O)N[C@@H]([C@@H](C)O)C(=O)N[C@H](CCN)C(=O)N[C@@H](CCCCN)C(=O)N1)C(=O)O [Example 9, Pro((4R)NH2)-Val-Pro((4R)NH2)-Ile-Thr-Tyr-Pen-Asn-Arg-Dab-Thr-^DDab-Lys-Cys-Dab-Arg-Nle] (H-[Pro(4R-NH2)]V[Pro(4R-NH2)]ITY[Pen]NR[Dab]T[dDab]KC[Dab]R[Nle]-OH; disulfide 7-14)	0.125	0.0625	0.0625	0
CCCC[C@H](NC(=O)[C@H](CCCNC(=N)N)NC(=O)[C@H](CCN)NC(=O)[C@@H]1CSSC(C)(C)[C@H](NC(=O)[C@H](Cc2ccc(O)cc2)NC(=O)[C@@H](NC(=O)[C@@H](NC(=O)CN(CCN)C(=O)[C@@H](NC(=O)[C@@H]2C[C@@H](N)CN2)C(C)C)[C@@H](C)CC)[C@@H](C)CC)C(=O)N[C@@H](CC(N)=O)C(=O)N[C@@H](CCCNC(=N)N)C(=O)N[C@@H](CCN)C(=O)N[C@@H]([C@@H](C)O)C(=O)N[C@H](CCN)C(=O)N[C@@H](CCCCN)C(=O)N1)C(=O)O [Example 10, Pro((4R)NH2)-Val-Ndab-Ile-Ile-Tyr-Pen-Asn-Arg-Dab-Thr-^DDab-Lys-Cys-Dab-Arg-Nle] (H-[Pro(4R-NH2)]V[Gly(N-2-aminoethyl)]IIY[Pen]NR[Dab]T[dDab]KC[Dab]R[Nle]-OH; disulfide 7-14)	0.25	0.125	0.125	0
CCCC[C@H](NC(=O)[C@H](CCCNC(=N)N)NC(=O)[C@H](CCN)NC(=O)[C@@H]1CSSC(C)(C)[C@H](NC(=O)[C@H](Cc2ccc(O)cc2)NC(=O)[C@@H](NC(=O)[C@@H](NC(=O)[C@@H]2C[C@@H](N)CN2C(=O)[C@@H](NC(=O)CNCCN)C(C)C)[C@@H](C)CC)[C@@H](C)CC)C(=O)N[C@@H](CC(N)=O)C(=O)N[C@@H](CCCNC(=N)N)C(=O)N[C@@H](CCN)C(=O)N[C@@H]([C@@H](C)O)C(=O)N[C@H](CCN)C(=O)N[C@@H](CCCCN)C(=O)N1)C(=O)O [Example 11, Ndab-Val-Pro((4R)NH2)-Ile-Ile-Tyr-Pen-Asn-Arg-Dab-Thr-^DDab-Lys-Cys-Dab-Arg-Nle] (H-[Gly(N-2-aminoethyl)]V[Pro(4R-NH2)]IIY[Pen]NR[Dab]T[dDab]KC[Dab]R[Nle]-OH; disulfide 7-14)	0.125	≤0.03125	0.0625	0

Second part, led by results:

Klebsiella pneumoniae SSI3010 MIC [1] [µg/mL]	Escherichia coli MCR-1 Af 45 MIC [2] [µg/mL]	Escherichia coli ATCC 25922 MIC [3] [µg/mL]	Structure (SMILES)	Hemolysis at 0.2 g/L [4] [%]
0.25	0.0625	0.25	CCCC[C@H](NC(=O)[C@H](CCCNC(=N)N)NC(=O)[C@H](CCN)NC(=O)[C@@H]1CSSC(C)(C)[C@H](NC(=O)[C@H](Cc2ccc(O)cc2)NC(=O)[C@@H](NC(=O)[C@@H](NC(=O)CN(CCN)C(=O)[C@@H](NC(=O)CNCCN)C(C)C)[C@@H](C)CC)[C@@H](C)O)C(=O)N[C@@H](CC(N)=O)C(=O)N[C@@H](CCCNC(=N)N)C(=O)N[C@@H](CCN)C(=O)N[C@@H]([C@@H](C)O)C(=O)N[C@H](CCN)C(=O)N[C@@H](CCCCN)C(=O)N1)C(=O)O [Example 12, Ndab-Val-Ndab-Ile-Thr-Tyr-Pen-Asn-Arg-Dab-Thr-^DDab-Lys-Cys-Dab-Arg-Nle] (H-[Gly(N-2-aminoethyl)]V[Gly(N-2-aminoethyl)]ITY[Pen]NR[Dab]T[dDab]KC[Dab]R[Nle]-OH; disulfide 7-14)	0
0.25	0.125	0.125	CCCC[C@H](NC(=O)[C@H](CCCNC(=N)N)NC(=O)[C@H](CCN)NC(=O)[C@@H]1CSSC(C)(C)[C@H](NC(=O)[C@H](Cc2ccc(O)cc2)NC(=O)[C@@H](NC(=O)[C@@H](NC(=O)CN(CCN)C(=O)[C@@H](NC(=O)CNCCN)C(C)C)[C@@H](C)CC)[C@@H](C)CC)C(=O)N[C@@H](CC(N)=O)C(=O)N[C@@H](CCCNC(=N)N)C(=O)N[C@@H](CCN)C(=O)N[C@@H]([C@@H](C)O)C(=O)N[C@H](CCN)C(=O)N[C@@H](CCCCN)C(=O)N1)C(=O)O [Example 13, Ndab-Val-Ndab-Ile-Ile-Tyr-Pen-Asn-Arg-Dab-Thr-^DDab-Lys-Cys-Dab-Arg-Nle] (H-[Gly(N-2-aminoethyl)]V[Gly(N-2-aminoethyl)]IIY[Pen]NR[Dab]T[dDab]KC[Dab]R[Nle]-OH; disulfide 7-14)	0
0.25	0.25	0.25	CCCC[C@H](NC(=O)[C@H](CCCNC(=N)N)NC(=O)[C@H](CCN)NC(=O)[C@@H]1CSSC(C)(C)[C@H](NC(=O)[C@H](Cc2ccc(O)cc2)NC(=O)[C@@H](NC(=O)[C@@H](NC(=O)CN(CCCN)C(=O)[C@@H](NC(=O)CNCCCN)C(C)C)[C@@H](C)CC)[C@@H](C)CC)C(=O)N[C@@H](CC(N)=O)C(=O)N[C@@H](CCCNC(=N)N)C(=O)N[C@@H](CCN)C(=O)N[C@@H]([C@@H](C)O)C(=O)N[C@H](CCN)C(=O)N[C@@H](CCCCN)C(=O)N1)C(=O)O [Example 14, Norn-Val-Norn-Ile-Ile-Tyr-Pen-Asn-Arg-Dab-Thr-^DDab-Lys-Cys-Dab-Arg-Nle] (H-[Gly(N(CH2)3NH2)]V[Gly(N(CH2)3NH2)]IIY[Pen]NR[Dab]T[dDab]KC[Dab]R[Nle]-OH; disulfide 7-14)	0
0.25	0.125	0.125	CCCC[C@H](NC(=O)[C@H](CCCNC(=N)N)NC(=O)[C@H](CCCN)NC(=O)[C@@H]1CSSC(C)(C)[C@H](NC(=O)[C@H](Cc2ccc(O)cc2)NC(=O)[C@@H](NC(=O)[C@@H](NC(=O)CN(CCN)C(=O)[C@@H](NC(=O)CNCCN)C(C)C)[C@@H](C)CC)[C@@H](C)CC)C(=O)N[C@@H](CC(N)=O)C(=O)N[C@@H](CCCNC(=N)N)C(=O)N[C@@H](CCN)C(=O)N[C@@H]([C@@H](C)O)C(=O)N[C@H](CCN)C(=O)N[C@@H](CCCCN)C(=O)N1)C(=O)O [Example 15, Ndab-Val-Ndab-Ile-Ile-Tyr-Pen-Asn-Arg-Dab-Thr-^DDab-Lys-Cys-Orn-Arg-Nle] (H-[Gly(N-2-aminoethyl)]V[Gly(N-2-aminoethyl)]IIY[Pen]NR[Dab]T[dDab]KC[Orn]R[Nle]-OH; disulfide 7-14)	0
